Data on four substances can be found in patent publication US8470765B2, “Polypeptides and antibacterial or antiseptic use of same” (AnGes MG, Inc., priority 2009, dated 2013).

Read-outs that look alike come from different tables or passages of the source. No end group written: not given here.

Data set [1] has as its system Staphylococcus aureus ATCC29213. Nature of the data set: microbe, parasite or virus in culture. In kind it is cell-based. The procedure: (§1) Bacteria (Escherichia coli ATCC 25922, Pseudomonas aeruginosa ATCC 27853, Staphylococcus aureus ATCC29213, Klebsiella pneumoniae JCM 1662, Enterobacter cloacae JCM 1232, Enterobacter aerogenes JCM 1235 and Staphylococcus epidermidis JCM 2414) were inoculated to Mueller-Hinton broth: MHB or LB medium, and cultured at a temperature and period suited for each strain. From the thus obtained colonies, each strain was inoculated to a fresh liquid medium and cultured for 16 to 20 hours. Then an aliquot having a volume (10 to 50 appropriate to each strain was inoculated to a fresh liquid medium and cultured for 4 to 6 hours, followed by the measurement of the absorbance at 600 nm. After comparing the turbidity with McFarland #0.5, the resultant was diluted with a medium. Each strain was added to about 10^5 CFU/mL (final concentration). Each of the peptide solutions to be tested was diluted with MHB to obtain a solution of 128 μg/mL. […] As controls, tobramycin (TOB: aminoglucoside antibiotic), oxacillin (OX:β-lactam antibiotic), meropenem (MEPM: carbapenem antibiotic) and ciprofloxacin (new quinolone antibiotic) were used. […] To a 96-well microtiter plate, 0.1 mL of the inoculation solution and 0.1 mL of the peptide- or positive control-containing medium having the respective concentration were added, and cultured at 37° C. for 16 to 24 hours (or a time period suited for the growth of the respective strain). The well not containing the sample was used as a negative control. After the culturing, the growth was visually observed, and the minimum concentration at which the growth was inhibited was defined as the minimum growth inhibition concentration (MIC). The medium used in this test for bacteria was Mueller-Hinton broth. Independent experiments were carried out twice or more for each strain.

Data set [2] concerns Escherichia coli ATCC 25922. The data set can be described thus: microbe, parasite or virus in culture. In kind it is cell-based. The following applies: Table 4; two tests, first/second value where not identical. Here is the method: as §1
Data set [3] deals with Staphylococcus epidermidis JCM 2414. Nature of the data set: microbe, parasite or virus in culture. Particulars: JCM 2414. In kind it is cell-based. The procedure:
as §1

Data set [4] deals with Pseudomonas aeruginosa ATCC 27853. Nature of the data set: microbe, parasite or virus in culture. In kind it is cell-based. Here is the method:
as §1

Data set [5] concerns Salmonella typhimurium JCM1652.
For data set [6], the system named is Fusobacterium nucleatum JCM 11025.
The test system of data set [7] is Trichophyton rubrum NBRC9185. Particulars: NBRC9185.
Data set [8] concerns Bacteroides fragilis JCM 11019.
The subject of data set [9] is Micrococcus luteus NBRC13867.
Data set [10] deals with Trichophyton mentagrophytes NBRC6124. Particulars: NBRC6124.
In data set [11] the test system is Alternaria alternata JCM5800.
The test system of data set [12] is Bacillus subtilis NBRC3134. The following applies: NBRC3134.
Data set [13] has as its system Salmonella enteritidis IID 604. Particulars: IID 604.
Data set [14] relates to Acinetobacter baumanni JCM6841. Particulars: JCM6841.
A further data set has as its system Fusarium solani JCM11383. The following applies: JCM11383.
Data set [15] concerns Streptococcus pyogenes JCM5674.
Data set [16] concerns Actinobacillus actinomycetemcomitans JCM2434.
In data set [17] the test system is Staphylococcus aureus ATCC29213. The data set can be described thus: ATP Assay (viability at 3 hours), Table 6. The following applies: 3 h, 5 μg/mL. In kind it is cell-based. Here is the method: (§2) Bacteria (Escherichia coli ATCC 25922, Pseudomonas aeruginosa ATCC 27853, Staphylococcus aureus ATCC29213, and Staphylococcus epidermidis JCM 2414) were inoculated to Mueller-Hinton broth: MHB or LB medium, and cultured at a temperature and period suited for each strain. From the thus obtained colonies, each strain was inoculated to a fresh liquid medium and cultured for 16 to 20 hours. Then an aliquot having a volume (10 to 50 μL) appropriate to each strain was inoculated to a fresh liquid medium and cultured for 4 to 6 hours, followed by the measurement of the absorbance at 600 nm. After comparing the turbidity with McFarland #0.5, the resultant was diluted with a medium. Each strain was added to about 10^5 CFU/mL (final concentration).
(§3) Each of the peptide solutions to be tested was diluted with the medium to obtain a solution of 10 μg/mL. As positive controls, tobramycin (TOB), oxacillin (OX) and meropenem (MEPM) were used. By dilution with sterilized purified water to 1.0 mg/mL, positive control-containing media having concentrations of […], respectively for TOB; 0.5, 0.12 and 0.06 μg/mL, respectively, for OX; and 1.0, 0.25, 0.12, 0.06, 0.03 and 0.008 μg/mL respectively, for MEPM, were prepared. To a 96-well microtiter plate, 0.1 mL of the inoculation solution and 0.1 mL of the peptide- or positive control-containing medium having the respective concentration were added, and cultured at 37° C. for 3 hours. The well not containing the sample was used as a negative control. After the culturing, ATP was measured using BacTiter-Glo Microbial Cell Viability Assay kit of PROMEGA, and compared with that in the negative control to obtain a relative value which was defined as a viability. The antibacterial activity was evaluated based on the viability at 3 hours later using ATP as an index.
(§4) The medium used in this test for bacteria was Mueller-Hinton broth. Independent experiments were carried out twice for each strain.

In data set [18] the test system is Escherichia coli ATCC 25922. The data set can be described thus: ATP Assay (viability at 3 hours), Table 6. In kind it is cell-based. Particulars: 3 h, 5 μg/mL. Here is the method: as §2, §3, §4
The test system of data set [19] is Pseudomonas aeruginosa ATCC 27853. Nature of the data set: ATP Assay (viability at 3 hours), Table 6. The following applies: 3 h, 5 μg/mL. In kind it is cell-based. The procedure: as §2, §3, §4
[20] abbreviates: Table 4, two tests, first/second value where not identical.

Ac-GRLKRMGERLKRKIQKWIRW-NH2 [SRP-19] registered an MIC Staphylococcus aureus in [1] (ATCC29213) of 8 µg/mL. Moreover, in [2], the “MIC Escherichia coli” value was 8/16. In data set [3], the MIC Staphylococcus epidermidis turned out to be 8 µg/mL. In addition, the MIC Pseudomonas aeruginosa in [4] (ATCC 27853) turned out to be 8 µg/mL. In data set [5] (JCM1652), this substance showed an MIC Salmonella Typhimurium of 4 µg/mL. In addition, the MIC Fusobacterium nucleatum in data set [6] (JCM 11025) came out at 4 µg/mL. Besides, the MIC Trichophyton rubrum in data set [7] is 64 µg/mL. Also, the “MIC Bacteroides fragilis” value in data set [8] (setting [20]) is 16/8. The MIC Micrococcus luteus in [9] was 2 µg/mL. Besides, in data set [10], the MIC Trichophyton mentagrophytes stood at 32 µg/mL. The substance further gave an MIC Alternaria alternata in data set [11] (JCM5800) of 64 µg/mL. This substance also showed an MIC Bacillus subtilis in [12] of 2 µg/mL. In [13], this substance came in with an MIC Salmonella Enteritidis of 4 µg/mL. The MIC Acinetobacter baumanni in data set [14] was 32 µg/mL. In the data set with Fusarium solani JCM11383, the MIC Fusarium solani turned out to be 16 µg/mL. In the data set on Candida krusei NBRC1395 (NBRC1395), this substance came in with an MIC Candida krusei of 16 µg/mL. The MIC Streptococcus pyogenes in [15] stood at 16 µg/mL. The same substance gave an MIC Actinobacillus actinomycetemcomitans in data set [16] of 64 µg/mL. Further, the “Staphylococcus aureus ATP (viability, relative value to negative control)” value in data set [17] was 2.1. For the same substance, the “Escherichia coli ATP (viability, relative value to negative control)” value in [18] was found to be 2.9. Moreover, the “Pseudomonas aeruginosa ATP (viability, relative value to negative control)” value in data set [19] was 1.6.
As to Ac-GRLKRMGKRLKRKIQKWARW-NH2 [SRP-18], the “MIC Staphylococcus aureus” value in data set [1] (setting [20]) was 8/16. For the same substance, in data set [2], the “MIC Escherichia coli” value is 8/16. This substance displayed an MIC Staphylococcus epidermidis in [3] of 8 µg/mL. Moreover, in [4] (setting [20]), the “MIC Pseudomonas aeruginosa” value is recorded as 4/8. The “MIC Salmonella Typhimurium” value in data set [5] (setting [20]) is 4/2. The “MIC Fusobacterium nucleatum” value in data set [6] (setting [20]) is on record as 32/16. Moreover, in data set [7], the MIC Trichophyton rubrum came to 32 µg/mL. Further, in [8] (setting [20]), the “MIC Bacteroides fragilis” value is reported as 64/32. The same substance registered an MIC Micrococcus luteus in [9] of 1 µg/mL. For the same substance, the MIC Trichophyton mentagrophytes in [10] was determined as 16 µg/mL. In [11] (JCM5800), the MIC Alternaria alternata came to 32 µg/mL. In data set [12], this substance had an MIC Bacillus subtilis of 2 µg/mL. This substance also yielded an MIC Salmonella Enteritidis in data set [13] of 2 µg/mL. This substance returned an MIC Acinetobacter baumanni in data set [14] of 32 µg/mL. This substance gave an MIC Fusarium solani against Fusarium solani JCM11383 of 8 µg/mL. Also, the “MIC Candida krusei” value in the data set with Candida krusei NBRC1395 (setting [20]) is reported as 32/16. This substance returned an MIC Streptococcus pyogenes in [15] of 16 µg/mL. In [16], this substance gave an MIC Actinobacillus actinomycetemcomitans of 64 µg/mL. The “Staphylococcus aureus ATP (viability, relative value to negative control)” value in [17] was determined as 2.0. The “Escherichia coli ATP (viability, relative value to negative control)” value in data set [18] was 1.7. Further, the “Pseudomonas aeruginosa ATP (viability, relative value to negative control)” value in [19] worked out at 1.5.
With Ac-KLIFLRELRRLRKRLKRKLR-NH2 [SRP-20], the MIC Staphylococcus aureus in data set [1] (ATCC29213) was found to be 16 µg/mL. In addition, the “MIC Escherichia coli” value in [2] is on record as 8/16. For the same substance, the “MIC Staphylococcus epidermidis” value in data set [3] fell in the range of 8000 to 16000 µg/mL. The “MIC Pseudomonas aeruginosa” value in [4] (setting [20]) is reported as 8/16. In data set [5] (JCM1652), this substance showed an MIC Salmonella Typhimurium of 4 µg/mL. In [6] (JCM 11025), this substance came in with an MIC Fusobacterium nucleatum of 4 µg/mL. Also, in data set [7], the MIC Trichophyton rubrum came out at 32 µg/mL. Further, the “MIC Bacteroides fragilis” value in data set [8] (setting [20]) is 8/16. The substance also registered an MIC Micrococcus luteus in data set [9] of 2 µg/mL. This substance yielded an MIC Trichophyton mentagrophytes in data set [10] of 16 µg/mL. Also, the “MIC Alternaria alternata” value in data set [11] (setting [20]) is reported as 32/64. Also, the MIC Bacillus subtilis in [12] came out at 2 µg/mL. The same substance registered an MIC Salmonella Enteritidis in [13] of 4 µg/mL. Also, the MIC Acinetobacter baumanni in [14] came out at 16 µg/mL. The substance further came in with an MIC Fusarium solani against Fusarium solani JCM11383 of 4 µg/mL. In the data set on Candida krusei NBRC1395 (NBRC1395), the MIC Candida krusei was determined as 16 µg/mL. The substance further came in with an MIC Streptococcus pyogenes in data set [15] of 32 µg/mL. In addition, the MIC Actinobacillus actinomycetemcomitans in [16] was found to be 128 µg/mL. Moreover, the “Staphylococcus aureus ATP (viability, relative value to negative control)” value in [17] is reported as 3.2. Moreover, the “Escherichia coli ATP (viability, relative value to negative control)” value in data set [18] turned out to be 6.2. Further, the “Pseudomonas aeruginosa ATP (viability, relative value to negative control)” value in data set [19] is reported as 1.1.
Turning to GRLKRMGERLKRKIQKLIRL-NH2 [SRP-21], the “MIC Staphylococcus aureus” value in [1] (setting [20]) is listed as 8/32. In data set [2], the “MIC Escherichia coli” value was 16/32. Besides, the “MIC Staphylococcus epidermidis” value in [3] lay within 8000 to 16000 µg/mL. This substance also had an MIC Pseudomonas aeruginosa in [4] (ATCC 27853) of 8 µg/mL. In addition, in data set [5] (JCM1652), the MIC Salmonella Typhimurium amounted to 2 µg/mL. Also, in data set [6] (JCM 11025), the MIC Fusobacterium nucleatum came to 4 µg/mL. Further, in data set [7], the MIC Trichophyton rubrum came to 128 µg/mL. Further, the MIC Bacteroides fragilis in [8] (JCM 11019) worked out at 16 µg/mL. Moreover, in [9], the MIC Micrococcus luteus worked out at 1 µg/mL. In addition, in data set [10], the MIC Trichophyton mentagrophytes amounted to 64 µg/mL. In [11] (JCM5800), this substance yielded an MIC Alternaria alternata of 64 µg/mL. This substance had an MIC Bacillus subtilis in [12] of 2 µg/mL. This substance also had an MIC Salmonella Enteritidis in [13] of 2 µg/mL. For the same substance, in data set [14], the MIC Acinetobacter baumanni was found to be 32 µg/mL. Besides, the MIC Fusarium solani against Fusarium solani JCM11383 amounted to 16 µg/mL. Also, the MIC Candida krusei in the data set with Candida krusei NBRC1395 (NBRC1395) was 32 µg/mL. In [15], this substance showed an MIC Streptococcus pyogenes of 8 µg/mL. In data set [16], this substance returned an MIC Actinobacillus actinomycetemcomitans of 32 µg/mL. In data set [17], the “Staphylococcus aureus ATP (viability, relative value to negative control)” value came to 1.8. Besides, the “Escherichia coli ATP (viability, relative value to negative control)” value in [18] worked out at 3.7. Moreover, the “Pseudomonas aeruginosa ATP (viability, relative value to negative control)” value in data set [19] amounted to 3.8.
